This is an account of results in patent US7153841B2, “Metal substituted non-centrosimmetrical phthalocyanine analogues, their preparation and use in photodynamic therapy and in vivo diagnostic” (L. Molteni & C. Dei Fratelli Alitti Societa Di Esercizio …, priority 2001, dated 2006).

Common to all, as to format: cell-based
Data set [1] concerns the target T1, repeat D of type III FN like of human Tenascin (TN) (Homo sapiens, UniProt P24821).
T1 construct: determined by immunohystochemistry on human fibroblasts (GM6114); endogenous in cells; host or cells: human fibroblasts (GM6114)
As to the kind of experiment: Binding specificity of labelled antibody by immunohystochemistry on human fibroblasts (GM6114). As to conditions: shown by immunohystochemistry experiments. From the text: Monoclonal Antibody α-D specific for the repeat D of type III FN like of human Tenascin (TN) (Balza et al. FEBS, 332,39 1993) has been labelled by using the compound of Ex. 4.
The labelling procedure has been carried out with the monoclonal bound to the Sepharose 4b immobilised antigen, represented from the recombinant TN containing repeats B,C,D type III FN-like.

Data set [2] has as its system human fibroblasts. Put plainly: Lack of non specific toxicity on human fibroblasts, with or without red light. As to conditions: DMEM 10% FCS, up to 40 μM. As to the method: The lack of non specific toxicity has been assessed by using human fibroblasts cultured for six days. Aliquots of the compound according to Ex. 4 at various concentrations have been added to cells in DMEM 10% FCS. After treatment the cell were irradiated for 10 min with red light (Intralux 4000 equipped with filter BP700/100Chroma Technology Corp.). In a parallel experiment cells were treated with the same amounts of compound of Ex. 4, however no light was provided.

The test system of data set [3] is C. albicans. As to the kind of experiment: Photoinactivation of C. albicans (CFU vs. concentration, FIG. 1). The text has this:
FIG. 1 represents the variation of the colony forming units (CFU) of C. albicans vs. the concentration (μM) of the compounds according to Examples 7 and 8,indicated in the FIGURE as MRLP 090 and MRLP 091 respectively.
The following example refer to the activity against C. albicans.

T1 sequence (P24821 23-2201): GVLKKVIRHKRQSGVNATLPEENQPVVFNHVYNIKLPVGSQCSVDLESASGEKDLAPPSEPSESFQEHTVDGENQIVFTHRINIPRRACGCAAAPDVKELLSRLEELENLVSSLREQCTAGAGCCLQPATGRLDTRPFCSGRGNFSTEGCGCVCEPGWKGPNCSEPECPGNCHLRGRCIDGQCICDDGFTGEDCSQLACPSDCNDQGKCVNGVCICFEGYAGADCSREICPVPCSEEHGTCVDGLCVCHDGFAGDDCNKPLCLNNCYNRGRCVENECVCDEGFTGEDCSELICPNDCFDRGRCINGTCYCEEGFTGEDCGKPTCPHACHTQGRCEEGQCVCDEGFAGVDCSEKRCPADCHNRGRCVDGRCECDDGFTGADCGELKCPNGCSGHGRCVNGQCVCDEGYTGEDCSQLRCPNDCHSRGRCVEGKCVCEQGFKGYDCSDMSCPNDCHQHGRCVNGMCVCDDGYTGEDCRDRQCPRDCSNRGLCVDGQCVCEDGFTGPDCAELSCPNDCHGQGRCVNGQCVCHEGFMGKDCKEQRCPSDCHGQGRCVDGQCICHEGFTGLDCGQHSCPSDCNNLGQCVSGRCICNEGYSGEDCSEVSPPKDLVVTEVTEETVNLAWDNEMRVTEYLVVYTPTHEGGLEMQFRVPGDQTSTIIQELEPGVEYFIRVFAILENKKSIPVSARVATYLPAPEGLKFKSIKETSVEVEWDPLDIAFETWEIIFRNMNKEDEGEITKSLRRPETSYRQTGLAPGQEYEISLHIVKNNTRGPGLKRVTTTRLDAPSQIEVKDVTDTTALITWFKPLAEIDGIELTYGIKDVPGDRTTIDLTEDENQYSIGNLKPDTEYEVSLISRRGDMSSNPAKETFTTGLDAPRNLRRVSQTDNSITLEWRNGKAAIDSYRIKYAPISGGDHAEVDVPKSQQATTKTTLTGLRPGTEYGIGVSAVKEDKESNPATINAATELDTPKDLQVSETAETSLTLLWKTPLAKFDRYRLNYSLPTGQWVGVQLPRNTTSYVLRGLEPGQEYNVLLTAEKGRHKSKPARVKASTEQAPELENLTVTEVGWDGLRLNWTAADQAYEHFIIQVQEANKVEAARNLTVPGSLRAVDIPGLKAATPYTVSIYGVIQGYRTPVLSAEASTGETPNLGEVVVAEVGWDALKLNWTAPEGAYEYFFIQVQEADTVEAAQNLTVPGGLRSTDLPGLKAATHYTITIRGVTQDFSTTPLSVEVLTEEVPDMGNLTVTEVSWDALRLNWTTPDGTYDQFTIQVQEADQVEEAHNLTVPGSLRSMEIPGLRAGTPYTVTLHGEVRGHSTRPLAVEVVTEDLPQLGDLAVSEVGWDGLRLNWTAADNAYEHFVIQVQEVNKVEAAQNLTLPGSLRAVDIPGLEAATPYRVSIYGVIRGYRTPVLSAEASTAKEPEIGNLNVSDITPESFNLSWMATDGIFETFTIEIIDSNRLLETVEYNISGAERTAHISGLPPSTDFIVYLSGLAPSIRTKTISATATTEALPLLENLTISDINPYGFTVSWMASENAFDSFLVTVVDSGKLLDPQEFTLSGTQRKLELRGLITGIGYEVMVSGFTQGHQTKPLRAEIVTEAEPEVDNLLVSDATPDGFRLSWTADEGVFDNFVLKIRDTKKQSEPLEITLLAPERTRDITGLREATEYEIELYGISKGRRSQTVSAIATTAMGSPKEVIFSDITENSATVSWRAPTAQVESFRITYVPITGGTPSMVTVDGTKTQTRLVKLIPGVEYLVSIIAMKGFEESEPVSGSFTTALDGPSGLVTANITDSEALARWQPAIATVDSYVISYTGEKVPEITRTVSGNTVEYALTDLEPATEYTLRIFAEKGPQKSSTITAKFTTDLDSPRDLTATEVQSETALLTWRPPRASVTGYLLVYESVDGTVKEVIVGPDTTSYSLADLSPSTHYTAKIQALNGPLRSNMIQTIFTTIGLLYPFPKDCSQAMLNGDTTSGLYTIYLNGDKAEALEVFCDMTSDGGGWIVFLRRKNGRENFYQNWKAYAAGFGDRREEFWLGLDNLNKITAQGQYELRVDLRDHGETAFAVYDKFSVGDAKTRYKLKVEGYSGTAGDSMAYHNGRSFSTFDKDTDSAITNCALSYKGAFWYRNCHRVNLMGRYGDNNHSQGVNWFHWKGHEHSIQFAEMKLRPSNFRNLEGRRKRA

In the case of “2-[(4-hydroxycarbonyl)phenoxy]-1(4),8(11),15(18),22(25)-tri[2 -(morfolin-1-yl) ethoxy] zinc(II)phthalocyanine [Example 4]”, the “aggregation or protein denaturation of the antibody on labelling” value in data set [1] is listed as “does not cause aggregation to occur or protein denaturation”. Further, the “mortality or morphology in comparison to not treated-not irradiated cells” value in data set [2] (irradiated 10 min with red light) and in data set [2] (no light provided) was “No differences in mortality or morphology” throughout.
On to “2-[(4-hydroxycarbonyl)phenoxy]-8(11),15(18),22(25)-tri[3-(trimethylammonium) phenoxy]zinc(II) phthalocyanine triiodide [Example 8]”, for which the “photoinactivation of C. albicans (variation of colony forming units vs. concentration, μM)” value in data set [3] is “photoinactivation”.
Still for that read-out and setting: the value for “2-[(4-hydroxycarbonyl)phenoxy]-9(10),16(17),23(24)-tri[3-(trimethylammonium) phenoxy]zinc(II)phthalocyanine triiodide [Example 7]” was “photoinactivation”.
